# Assay results reported in ChEMBL document CHEMBL1122795 (J Med Chem, 1984).
# Tests used:
# Rattus norvegicus = assay: Effective dose (p.o.) required to reverse ptosis induced by tetrabenazine in rat; format: functional; settings: po
# Mus musculus [1] = species on record: Mus musculus; assay: Effective dose against oxotremorine induced lacrimation; format: functional
# Canis familiaris [2] = species on record: Canis familiaris; assay: Inhibition of the response to phenethylamine was measured; format: functional; settings: Canis lupus familiaris
# Mus musculus [3] = species on record: Mus musculus; assay: Effective dose against oxotremorine induced tremor; format: functional
# Mus musculus [4] = assay: Effective dose (p.o.) required to reverse ptosis induced by tetrabenazine in mouse; format: functional; settings: po
# Canis familiaris [5] = species on record: Canis familiaris; assay: Potentiation of the response to norepinephrine was measured; format: functional; settings: Canis lupus familiaris
# Monoamine oxidase = biological target: T1, Monoamine oxidase (Rattus norvegicus, UniProt P19643+P21396); assay: In vitro inhibitory concentration against monoamine oxidase with 5-HT as substrate; format: protein assay; settings: mouse
# T1 sequence (P19643 whole entry): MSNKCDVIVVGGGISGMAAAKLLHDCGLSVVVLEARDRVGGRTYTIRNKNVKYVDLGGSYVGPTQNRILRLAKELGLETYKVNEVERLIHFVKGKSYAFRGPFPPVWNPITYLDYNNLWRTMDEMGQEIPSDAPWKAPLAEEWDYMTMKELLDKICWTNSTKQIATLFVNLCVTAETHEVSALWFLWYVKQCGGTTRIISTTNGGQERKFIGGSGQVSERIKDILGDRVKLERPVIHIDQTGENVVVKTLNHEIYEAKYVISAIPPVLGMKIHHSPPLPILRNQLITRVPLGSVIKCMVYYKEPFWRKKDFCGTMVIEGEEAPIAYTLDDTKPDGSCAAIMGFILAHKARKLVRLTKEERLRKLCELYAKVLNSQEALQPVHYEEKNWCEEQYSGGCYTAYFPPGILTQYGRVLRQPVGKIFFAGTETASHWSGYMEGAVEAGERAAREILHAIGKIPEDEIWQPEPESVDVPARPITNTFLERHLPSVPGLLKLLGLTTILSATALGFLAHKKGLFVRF
# T1 sequence (P21396 whole entry): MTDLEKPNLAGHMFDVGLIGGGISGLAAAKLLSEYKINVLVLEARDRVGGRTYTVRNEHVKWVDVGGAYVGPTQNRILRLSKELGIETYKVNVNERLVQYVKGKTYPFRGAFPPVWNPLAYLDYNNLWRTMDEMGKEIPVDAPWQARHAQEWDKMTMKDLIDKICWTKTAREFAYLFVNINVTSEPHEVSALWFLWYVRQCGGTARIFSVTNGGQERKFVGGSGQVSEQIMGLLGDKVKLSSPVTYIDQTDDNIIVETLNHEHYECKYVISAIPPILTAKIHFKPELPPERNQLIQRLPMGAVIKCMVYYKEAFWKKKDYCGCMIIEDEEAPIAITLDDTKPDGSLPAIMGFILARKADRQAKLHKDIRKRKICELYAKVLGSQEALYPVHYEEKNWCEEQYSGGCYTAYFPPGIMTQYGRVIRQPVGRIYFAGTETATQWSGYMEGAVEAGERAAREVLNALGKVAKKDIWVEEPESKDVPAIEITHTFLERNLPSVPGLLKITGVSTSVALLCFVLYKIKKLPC
# [6] = Acute toxicity (p.o.) after 24 hr was determined in mouse; format: organism-based; settings: in vivo, po
KI50 (Monoamine oxidase) [M l-1],SMILES,ED50 (Rattus norvegicus) [mg/kg],ED50 (Mus musculus [1]) [mg/kg],ED50 (Canis familiaris [2]) [mg/kg],ED50 (Mus musculus [3]) [mg/kg],ED50 (Mus musculus [4]) [mg/kg],ED50 (Canis familiaris [5]) [mg/kg],LD50 at 24 h [6] [mg/kg]
> 0.001,Cl.c1ccc2c(c1)C1c3ccccc3C2C2CNCCC12 (stereo not drawn),0.5,> 243,1.2,> 243,0.41,0.22,
,CN1CCC2C3c4ccccc4C(c4ccccc43)C2C1.Cl (stereo not drawn),,36,,100,1,,
,CN(C)CCC=C1c2ccccc2CCc2ccccc21 [AMITRIPTYLINE],12,27,1.1,21,1.3,1,177
,CN(C)CCCN1c2ccccc2CCc2ccccc21 [IMIPRAMINE],4.12,130,1.5,70,1.3,3,
